Source: patent US20140303092A1 (CHIMERIX, INC., priority 2011, published 2014)

Assay: Study HDP-CDV-201: safety and tolerability (adverse events, laboratory abnormalities, discontinuations)
Assay type: in vivo, human (adult allogeneic HSCT recipients)
Method: Clinical Studies of HDP-CDV were performed and described in detail in the following Examples. For example, HDP-CDV-201 is a placebo-controlled, dose-escalating trial in HSCT CMV (R+) recipients, evaluating the ability of HDP-CDV to prevent or control CMV infection was carried out. Five cohorts were established in which participants or subjects received either placebo or the HDP-CDV orally, in doses ranging from 40 mg weekly (QW) to 200 mg twice weekly (BIW). Subjects who were post-HSCT were enrolled at the time of engraftment and randomized to HDP-CDV or placebo (3 to 1 ratio) and received blinded therapy until approximately 100 day post-transplantation. HDP-CDV doses were 40 mg QW, 100 mg QW, 200 mg QW, 200 mg BIW and 100 mg BIW. Escalation to the next dose was decided by the data monitoring committee after review of the safety data from the previous Cohort. Subjects who developed CMV disease or CMV infection requiring pre-emptive therapy with local standard of care were discontinued from blinded therapy and followed for 4 weeks. Subjects who completed treatment with blinded therapy were followed for 8 weeks post-therapy.
Data from Study HDP-CDV-201 also provided characterization of the safety and tolerability profile of HDP-CDV when administered for the prevention or control of CMV infection in high risk (R^+) post-HSCT adult subjects.
The Safety population (SAFETY) included all randomized subjects who took at least one dose of study treatment. This population was used to summarize safety outcomes based on the treatment actually received, in cases where a subject was treated contrary to the randomization schedule.
The safety and tolerability profile of HDP-CDV, including subject demographics and Baseline characteristics; the AE profile; and laboratory abnormalities of interest were analyzed in the cohorts followed in this investigation.
Subjects completing the treatment period received a full course of study medication; those completing the entire study attended visits through 8 weeks of follow up. Subjects who discontinued treatment may have done so for protocol specified reasons (e.g. development of clinically significant CMV infection requiring preemptive treatment with excluded anti-CMV medications) or for other reasons (e.g., withdrawal, adverse events, loss to follow-up). The disposition of subjects in Study HDP-CDV-201 during the double-blind, placebo-controlled treatment period (through Week 11) is listed by dosing Cohort in TABLE 23.
Adverse events were examined by severity to ensure that all safety signals were identified in this study population. Because of the frequency of events in HSCT recipients, particular attention was given to evaluation of Grade 3 […], 4 (severe), and 5 (fatal) adverse events.
Only those preferred terms for which at least one Grade 3 or higher event was experienced in any treatment group are listed. Cytomegalovirus-related AEs are excluded from this analysis.
HDP-CDV is a lipid conjugate of CDV. Because CDV is known to have adverse effects on renal function and bone marrow, decreased GFR and persistent neutropenia were identified as AEs of special interest. Key renal and hematological (TABLE 30) laboratory parameters were measured and listed below by Study HDP-CDV-201 treatment groups. TABLE 30 includes abnormal levels of serum creatinine, neutrophils, platelets, WBCs, and hemoglobin and includes data at Screening and during the treatment period.
A common metric for unit based dosing of medications is by weight (mg/kg). When the distribution of weights was examined for all subjects participating in the study, the median was 78 kg and the lower 25th percentile weight was approximately 65 kg, which translates to a cut-off of ˜3 mg/kg for a 200 mg total weekly dose. Based upon this approach, a cut-off of 3 mg/kg was used to assess the frequency of diarrhea and associated GI AEs reported for the subjects in Cohorts 3 or 4a (TABLE 40).

[1] = Cohort 3, 200 mg QW, through Week 11

CCCCCCCCCCCCCCCCOCCCOP(=O)(O)COC(CO)Cn1ccc(N)nc1=O (stereo not drawn) [HDP-CDV]
3 (21.4%): TEAE Nausea Overall Frequency, subjects (Cohort 3, 200 QW >3 mg/kg)
8 (57.1%): TEAE Diarrhea Overall Frequency, subjects (Cohort 3, 200 QW >3 mg/kg)
4 (10.3%) n (%): TEAE Neutropenia (Cohort 3, 200 mg QW, N = 39)
11 (28.2%) n (%): TEAE Nausea (Cohort 3, 200 mg QW, N = 39)
0 n (%): TEAE Acute Myeloid Leukemia recurrent (Cohort 3, 200 mg QW, N = 39) | TEAE Acute Renal Failure (Cohort 3, 200 mg QW, N = 39) | TEAE Blood lactate dehydrogenase increased (Cohort 3, 200 mg QW, N = 39) | TEAE Gamma-glutamyltransferase increased (Cohort 3, 200 mg QW, N = 39) | TEAE Generalized oedema (Cohort 3, 200 mg QW, N = 39) | TEAE Hypocalcaemia (Cohort 3, 200 mg QW, N = 39) | TEAE Pneumonia (Cohort 3, 200 mg QW, N = 39) | TEAE Renal Failure (Cohort 3, 200 mg QW, N = 39) | TEAE Thrombocytopenia (Cohort 3, 200 mg QW, N = 39)
6 (15.4%): TEAE Vomiting Overall Frequency, subjects (Cohort 3, 200 mg QW)
1 (2.6%): Total Bilirubin (any time during therapy) >1-[…] ULN, subjects (Cohort 3, 200 mg QW) | Diarrhoea leading to study drug withdrawal (Cohort 3, 200 mg QW, N = 39)
2 (5.1%) n (%): TEAE ALT increased (Cohort 3, 200 mg QW, N = 39) | TEAE Back Pain (Cohort 3, 200 mg QW, N = 39) | TEAE Dysgeusia (Cohort 3, 200 mg QW, N = 39) | TEAE GI Reflux Disease (Cohort 3, 200 mg QW, N = 39) | TEAE Increased leukocytosis (Cohort 3, 200 mg QW, N = 39) | TEAE Liver function test abnormal (Cohort 3, 200 mg QW, N = 39) | TEAE Oral Candidiasis (Cohort 3, 200 mg QW, N = 39) | TEAE Tremor (Cohort 3, 200 mg QW, N = 39)
21 (53.8%) n (%): Subjects who permanently discontinued treatment [1]
13 (33.3%) n (%): TEAE Acute GVHD (Cohort 3, 200 mg QW, N = 39) | TEAE Diarrhoea (Cohort 3, 200 mg QW, N = 39)
1 (7.1%): TEAE Abdominal pain Grade 3, subjects (Cohort 3, 200 QW >3 mg/kg) | TEAE Diarrhea Grade 3, subjects (Cohort 3, 200 QW >3 mg/kg) | TEAE Hypokalaemia Grade 2, subjects (Cohort 3, 200 QW >3 mg/kg) | TEAE Nausea Grade 2, subjects (Cohort 3, 200 QW >3 mg/kg) | Abnormal ALT >3-5x ULN, Any Time Between Week 2 and Week 10, subjects (Cohort 3, >3.0 mg/kg/wk)
3 (12%): TEAE Abdominal pain Overall Frequency, subjects (Cohort 3, 200 QW ≦3 mg/kg) | TEAE Nausea Grade 2, subjects (Cohort 3, 200 QW ≦3 mg/kg)
7 (17.9%) n (%): TEAE Cytomegalovirus viremia (Cohort 3, 200 mg QW, N = 39) | TEAE Hyponatraemia (Cohort 3, 200 mg QW, N = 39) | TEAE Pyrexia (Cohort 3, 200 mg QW, N = 39)
8 (32%): TEAE Nausea Overall Frequency, subjects (Cohort 3, 200 QW ≦3 mg/kg)
1 (2.6%) n (%): TEAE AST increased (Cohort 3, 200 mg QW, N = 39) | TEAE Abdominal pain, Upper (Cohort 3, 200 mg QW, N = 39) | TEAE Arthralgias (Cohort 3, 200 mg QW, N = 39) | TEAE Hyperglycaemia (Cohort 3, 200 mg QW, N = 39) | TEAE Hyperkalemia (Cohort 3, 200 mg QW, N = 39) | TEAE Malnutrition (Cohort 3, 200 mg QW, N = 39) | TEAE Recurrent flatulence (Cohort 3, 200 mg QW, N = 39) | TEAE Staphylococcal Bacteremia (Cohort 3, 200 mg QW, N = 39)
4 (28.6%): TEAE Diarrhea Grade 2, subjects (Cohort 3, 200 QW >3 mg/kg) | TEAE Hypokalaemia, subjects (Cohort 3, 200 QW >3 mg/kg)
3 (7.7%) n (%): TEAE Anxiety (Cohort 3, 200 mg QW, N = 39) | TEAE Creatinine increased (Cohort 3, 200 mg QW, N = 39) | TEAE Decreased appetite (Cohort 3, 200 mg QW, N = 39) | TEAE Hyperbilirubinaemia (Cohort 3, 200 mg QW, N = 39) | TEAE Oedema peripheral (Cohort 3, 200 mg QW, N = 39)
5 (12.8%) n (%): TEAE Abdominal pain (Cohort 3, 200 mg QW, N = 39) | TEAE Fatigue (Cohort 3, 200 mg QW, N = 39) | TEAE Hypokalaemia (Cohort 3, 200 mg QW, N = 39) | TEAE Insomnia (Cohort 3, 200 mg QW, N = 39)
2 (5.1%): Dyspepsia leading to study drug withdrawal (Cohort 3, 200 mg QW, N = 39)
0%: Abdominal pain leading to study drug withdrawal (Cohort 3, 200 mg QW, N = 39) | Nausea leading to study drug withdrawal (Cohort 3, 200 mg QW, N = 39) | Vomiting leading to study drug withdrawal (Cohort 3, 200 mg QW, N = 39)
15 (38.5%): All AEs leading to withdrawal (Cohort 3, 200 mg QW, N = 39)
5 (20%): TEAE Diarrhea Overall Frequency, subjects (Cohort 3, 200 QW ≦3 mg/kg)
4 (16%): TEAE Vomiting Overall Frequency, subjects (Cohort 3, 200 QW ≦3 mg/kg)
6 (15.4%) n (%): TEAE Vomiting (Cohort 3, 200 mg QW, N = 39)
18 (46.2%) n (%): Subjects completed treatment [1]
2 (14.3%): TEAE Abdominal pain Overall Frequency, subjects (Cohort 3, 200 QW >3 mg/kg) | TEAE Vomiting Overall Frequency, subjects (Cohort 3, 200 QW >3 mg/kg)
0: Total Bilirubin (Screening) >1-[…] ULN, subjects (Cohort 3, 200 mg QW) | Total Bilirubin (Screening) >1.5-3 × ULN, subjects (Cohort 3, 200 mg QW) | Total Bilirubin (Screening) >3-10 × ULN, subjects (Cohort 3, 200 mg QW) | Total Bilirubin (Screening) >10 × ULN, subjects (Cohort 3, 200 mg QW) | Total Bilirubin (any time during therapy) >3-10 × ULN, subjects (Cohort 3, 200 mg QW) | Total Bilirubin (any time during therapy) >10 × ULN, subjects (Cohort 3, 200 mg QW) | TEAE Abdominal pain Grade 2, subjects (Cohort 3, 200 QW >3 mg/kg) | TEAE Abdominal pain Grade 4, subjects (Cohort 3, 200 QW >3 mg/kg) | TEAE Abdominal pain Grade 5, subjects (Cohort 3, 200 QW >3 mg/kg) | TEAE Diarrhea Grade 4, subjects (Cohort 3, 200 QW >3 mg/kg) | TEAE Diarrhea Grade 5, subjects (Cohort 3, 200 QW >3 mg/kg) | TEAE Hypokalaemia Grade 3, subjects (Cohort 3, 200 QW >3 mg/kg) | TEAE Hypokalaemia Grade 4, subjects (Cohort 3, 200 QW >3 mg/kg) | TEAE Hypokalaemia Grade 5, subjects (Cohort 3, 200 QW >3 mg/kg) | TEAE Nausea Grade 3, subjects (Cohort 3, 200 QW >3 mg/kg) | TEAE Nausea Grade 4, subjects (Cohort 3, 200 QW >3 mg/kg) | TEAE Nausea Grade 5, subjects (Cohort 3, 200 QW >3 mg/kg) | TEAE Vomiting Grade 2, subjects (Cohort 3, 200 QW >3 mg/kg) | TEAE Vomiting Grade 3, subjects (Cohort 3, 200 QW >3 mg/kg) | TEAE Vomiting Grade 4, subjects (Cohort 3, 200 QW >3 mg/kg) | TEAE Vomiting Grade 5, subjects (Cohort 3, 200 QW >3 mg/kg) | TEAE Abdominal pain Grade 3, subjects (Cohort 3, 200 QW ≦3 mg/kg) | TEAE Abdominal pain Grade 4, subjects (Cohort 3, 200 QW ≦3 mg/kg) | TEAE Abdominal pain Grade 5, subjects (Cohort 3, 200 QW ≦3 mg/kg) | TEAE Diarrhea Grade 4, subjects (Cohort 3, 200 QW ≦3 mg/kg) | TEAE Diarrhea Grade 5, subjects (Cohort 3, 200 QW ≦3 mg/kg) | TEAE Hypokalaemia Grade 3, subjects (Cohort 3, 200 QW ≦3 mg/kg) | TEAE Hypokalaemia Grade 4, subjects (Cohort 3, 200 QW ≦3 mg/kg) | TEAE Hypokalaemia Grade 5, subjects (Cohort 3, 200 QW ≦3 mg/kg) | TEAE Nausea Grade 4, subjects (Cohort 3, 200 QW ≦3 mg/kg) | TEAE Nausea Grade 5, subjects (Cohort 3, 200 QW ≦3 mg/kg) | TEAE Vomiting Grade 4, subjects (Cohort 3, 200 QW ≦3 mg/kg) | TEAE Vomiting Grade 5, subjects (Cohort 3, 200 QW ≦3 mg/kg)
3 (7.7%): All AEs, Grade 5 (deaths) (Cohort 3, 200 mg QW, N = 39, entire study duration)
1 (4.0%): TEAE Abdominal pain Grade 2, subjects (Cohort 3, 200 QW ≦3 mg/kg) | TEAE Diarrhea Grade 2, subjects (Cohort 3, 200 QW ≦3 mg/kg) | TEAE Diarrhea Grade 3, subjects (Cohort 3, 200 QW ≦3 mg/kg) | TEAE Hypokalaemia Grade 2, subjects (Cohort 3, 200 QW ≦3 mg/kg) | TEAE Hypokalaemia, subjects (Cohort 3, 200 QW ≦3 mg/kg) | TEAE Nausea Grade 3, subjects (Cohort 3, 200 QW ≦3 mg/kg) | TEAE Vomiting Grade 2, subjects (Cohort 3, 200 QW ≦3 mg/kg) | TEAE Vomiting Grade 3, subjects (Cohort 3, 200 QW ≦3 mg/kg)
3 (7.9%): Total Bilirubin (any time during therapy) >1.5-3 × ULN, subjects (Cohort 3, 200 mg QW)
